Consider two compounds from US20040033614A1, “Detection of oxidative intermediates in biological samples” (priority 2002, published 2004).

Each structure is given as a SMILES string.

The test system of assay [1] is superoxide dismutase and glutathione peroxidase. The conditions noted are these: 5/6th nephrectomized rats treated with enalapril; reference 26; cited from earlier work.
Assay [2] deals with urinary albumin and total urinary protein oxidation. Description: Carbonylation of urine proteins by Western blotting (DNP derivatization, OxyBlot). The format is in vivo, patients with chronic kidney disease. The method, then:
(§1) The protocol design of this study was reported in detail previously (15). Briefly, patients between the ages of 18 to 80 years with proteinuria of ≧1 g/d, hypertension defined as mean arterial pressure ≧97 mm Hg, serum potassium of ≦5.5 mEq/L and on lisinopril therapy of 40 mg/d for >3 months were eligible for the study. Patients who had previously received angiotensin receptor blockers or with estimated creatine clearance of <30 ml/min were excluded.
(§2) The study was a two period, cross-over, randomized controlled trial. Patients received either a sequence of losartan 50 mg/d for 4 weeks, a two week washout, and then placebo for 4 weeks or placebo for 4 weeks, a two week washout, and then losartan 50 mg/d for 4 weeks. Lisinopril 40 mg/d along with other anti-hypertensive therapy were continued throughout the trial. 24-hour urine was collected for protein, sodium, urea and creatinine, urinary carbonylated protein, malondialdehyde and monocyte chemotactic protein-l (MCP1) measurements. As the standard therapy for patients with proteinuria and renal failure includes ACE-inhibitors, ACE-inhibitors were not removed from any patient enrolled in the study.
Oxidation of plasma and urine proteins was measured by Western blot analysis according to the method of Shacter et al. Total protein was determined using the Vitros Dry Slide system (Ortho-Clinical Diagnostics, Rochester, N.Y.). Plasma was diluted 1:25 (v:v) with phosphate-buffered saline (PBS), and one aliquot of the diluted sample was derivatized and another prepared as an underivatized control using the OxyBlot protein oxidation detection kit (Intergen, Purchase, N.Y.). […] Derivatized and underivatized plasma or urine samples were loaded on electrophoresis gels in volumes calculated to give 5 μg of protein per sample, and the samples were electrophoresed according to the method of Laemmli on 4 to 20% gradient SDS-PAGE (Bio-Rad, Hercules, Calif.). […] Bands were visualized with chemiluminescent chemicals and captured on film at two exposure times (30 seconds and 1 minute). Blots were scanned on a Hewlett-Packard ScanJet 5200C scanner (Hewlett-Packard, Palo Alto, Calif.) and analyzed for band area using Un-Scan-It Gel software (Silk Scientific, Orem, Utah).
Samples from individual patients before and after losartan therapy, including derivatized and underivatized controls, were analyzed on a single Western blot. This ensured that the response to losartan therapy was compared under the same analytical conditions. […] Density of individual albumin bands and total protein in each sample lane was determined using the same size section of each scanned blot. […] The uniform window size and analysis box ensured that data were being analyzed consistently from band to band and from blot to blot. […]
On the technique in general: In western blotting, separated proteins are transferred to a membrane and probed.

Assay [3] deals with plasma albumin and total plasma protein oxidation. The experiment in a line: Carbonylation of plasma proteins by Western blotting (DNP derivatization, OxyBlot). It is filed as in vivo, patients with chronic kidney disease. The conditions noted are these: before vs after losartan 50 mg/d for 4 weeks. The procedure: as §1
The study was a two period, cross-over, randomized controlled trial. […]
Oxidation of plasma and urine proteins was measured by Western blot analysis according to the method of Shacter et al. Total protein was determined using the Vitros Dry Slide system (Ortho-Clinical Diagnostics, Rochester, N.Y.). […] Derivatized and underivatized plasma or urine samples were loaded on electrophoresis gels in volumes calculated to give 5 μg of protein per sample, and the samples were electrophoresed according to the method of Laemmli on 4 to 20% gradient SDS-PAGE (Bio-Rad, Hercules, Calif.). […] Blots were scanned on a Hewlett-Packard ScanJet 5200C scanner (Hewlett-Packard, Palo Alto, Calif.) and analyzed for band area using Un-Scan-It Gel software (Silk Scientific, Orem, Utah).
Samples from individual patients before and after losartan therapy, including derivatized and underivatized controls, were analyzed on a single Western blot. […]

The next assay deals with plasma MDA. The experiment in a line: Plasma malondialdehyde by fluorometric HPLC, cross-over trial of add-on losartan. The format is in vivo, patients with chronic kidney disease. The conditions noted are these: losartan 50 mg/d for 4 weeks added to lisinopril 40 mg/d. The method, then:
(§3) Sample derivatization was carried out in 2 mL capacity plastic centrifuge tubes fitted with screw-on caps. To a 50 μl aliquot of sample or TEP standard, 50 μl BHT solution, 400 μl H3PO4 solution, and 100 μl TBA solution were added. Sample tubes were capped tightly, vortexed and then heated for 1 hour in a 100° C. dry bath incubator. Following heat derivatization, samples were placed in an ice-water (0° C.) water bath for 5 minutes to cool. 250 μl n-butanol was subsequently added to each vial for extracting the MDA-TBA complex. Tubes were vortexed for 5 minutes and then centrifuged for 3 minutes at 14,000× min^−1 to separate the two phases. Aliquots of 100 μl were removed from the n-butanol layer of each sample and placed in HPLC vials for analysis.
(§4) The chromatographic system consisted of a Hewlett-Packard Chromatographic Series 1100 autosampler and isocratic pump and Hewlett-Packard model 1046A programmable fluorescence detector (Palo Alto, Calif., USA). The autosampler was programmed to inject 10 μl of each sample at 1-minute intervals. The pump flow rate was 1.0 ml/min with the mobile phase comprised of methanol-buffer (40:60, v/v). […] The fluorescence detector was set at an excitation wavelength of 515 nm and emission wavelength of 553 nm. […] Peak areas were determined using a ChromJet integrator (Thermo Separation Products, San Jose, Calif.). […]

The subject of another assay is urinary MDA. Description: Urinary malondialdehyde by fluorometric HPLC, cross-over trial of add-on losartan. It is filed as in vivo, patients with chronic kidney disease. The conditions noted are these: losartan 50 mg/d for 4 weeks added to lisinopril 40 mg/d; significantly decreased from 4.75±3.23 before therapy; mean ± SD, 16 patients. The procedure:
as §3, §4

Assay [4] can be described thus: Blood pressure and proteinuria in the add-on losartan trial. The format is in vivo, patients with chronic kidney disease. The conditions noted are these: losartan 50 mg/d added to lisinopril 40 mg/d; as reported previously (15). The method, then: The protocol design of this study was reported in detail previously (15). Briefly, patients between the ages of 18 to 80 years with proteinuria of ≧1 g/d, hypertension defined as mean arterial pressure ≧97 mm Hg, serum potassium of ≦5.5 mEq/L and on lisinopril therapy of 40 mg/d for >3 months were eligible for the study. […] The study was a two period, cross-over, randomized controlled trial. Patients received either a sequence of losartan 50 mg/d for 4 weeks, a two week washout, and then placebo for 4 weeks or placebo for 4 weeks, a two week washout, and then losartan 50 mg/d for 4 weeks. Lisinopril 40 mg/d along with other anti-hypertensive therapy were continued throughout the trial. […] Serum chemistries, complete blood counts, urine protein, electrolytes, urea and creatinine were measured in a hospital laboratory using routine methods. Specifically, creatinine was measured on a Hitachi 911 analyzer (Boehringer Mannheim) using the alkaline picrate method and urine protein was measured using a turbidometric method using benzethonium chloride read at 550 nm (Roche Diagnostics Corporation, Indianapolis, Ind.). Ambulatory blood pressure was measured with SpaceLabs 90207 monitors and glomerular filtration rate measurements with continuous infusion of iothalamate as previously reported (15).

The next assay deals with plasma protein carbonyl. The experiment in a line: Total plasma protein carbonyl measurement by size exclusion HPLC. It is filed as in vivo, patients with chronic kidney disease. The conditions noted are these: direct measurement of protein carbonylation in plasma. The method, then:
as §1, §2
In general terms: In gel filtration, larger molecules generally elute earlier.

As for `CCOC(=O)[C@H](CCc1ccccc1)N[C@@H](C)C(=O)N1CCC[C@H]1C(=O)O` [enalapril], the “antioxidant enzymes in the kidney (superoxide dismutase, glutathione peroxidase)” value in assay [1] is “increased”.

As to `CCCCc1nc(Cl)c(CO)n1Cc1ccc(-c2ccccc2-c2nn[nH]n2)cc1` [losartan], the “total urinary protein oxidation in excess of plasma after losartan therapy” value in assay [2] (after treatment, p=0.029, 99% higher before therapy) stood at 69%. Moreover, in assay [2] (after treatment, p=0.45, 71% higher before therapy), the “urinary albumin oxidation compared to plasma albumin after losartan” value is “no more oxidized”. For the same compound, the “total urinary protein oxidation, change with losartan” value in assay [2] (before vs after losartan 50 mg/d for 4 weeks) is “did not reach statistical significance”. In assay [2] (losartan 50 mg/d for 4 weeks added to lisinopril 40 mg/d, before vs after, proteinuria not reduced), the “oxidative damage to urinary albumin” value is recorded as “reduced”. For the same compound, in assay [3], the “plasma albumin oxidation, change with losartan” value was “remained unchanged” and the “plasma protein oxidation, change with losartan” value is reported as “remained unchanged”. Also, the “plasma MDA, change in response to losartan therapy” value in the assay with plasma MDA was “Neither plasma MDA or plasma oxidized proteins (FIGS. 6B and 7) changed”. Moreover, the “urinary MDA levels after losartan therapy” value in the assay with urinary MDA stood at 3.39±2.17 μmol/g creatinine. Further, in assay [4], the “blood pressure, change in response to add-on losartan therapy” value was “no change” and the “proteinuria, change in response to add-on losartan therapy” value is “no change”. Also, the “carbonyl concentration from oxidized proteins in plasma, change with losartan” value in the assay with plasma protein carbonyl is on record as “remained unchanged”.
